# Assay results published in ChEMBL document CHEMBL1140482, “A novel class of Hsp90 inhibitors isolated by structure-based virtual screening” (Bioorg Med Chem Lett, 2007).
# How the values were obtained:
# [1] = Inhibition of yeast Hsp90 ATPase expressed in Escherichia coli; parameters: species or system Saccharomyces cerevisiae
# [2] = system: MCF7; assay: Growth inhibition of human MCF7 cells after days by SRB assay; format: functional
smiles,measurement,setting,value
COc1cc(/C=C/c2nc3ccccc3c(=O)n2-c2ccccc2O)ccc1O,IC50,[1],2.3 µM
same,GI50,[2],9.6 µM
COC1=C2C[C@@H](C)C[C@H](OC)[C@H](O)[C@@H](C)/C=C(\C)[C@H](OC(N)=O)[C@@H](OC)/C=C\C=C(/C)C(=O)NC(=CC1=O)C2=O [GELDANAMYCIN],IC50,[1],22 µM
same,GI50,[2],35.6 µM
COc1ccc(-n2c(/C=C/c3cccc(OC)c3O)nc3ccccc3c2=O)cc1,IC50,[1],31.8 µM
same,GI50,[2],25.4 µM
O=C(O)c1ccc(-n2c(/C=C/c3ccccc3O)nc3ccccc3c2=O)cc1,IC50,[1],20 µM
same,GI50,[2],27.5 µM
